# EP2266984A1, “Pyrido[2,3-d]pyrimidines as Wnt antagonists for treatment of cancer and arthritis” (Deutsches Krebsforschungszentrum Stiftung des öffentlichen …, priority 2009, dated 2010)
# How the values were obtained:
# Wnt signalling pathway = test: Wnt-sensitive reporter gene assay (6xTCF-luciferase, pTOP-FLASH) in Hek293T cells; assay type: cell-based; details: for Normalized Wnt pathway inhibitory activity: 24 h; for IC50: Homo sapiens, HEK-293T, 6xTCF-luciferase, 5nM - 100 microM, 24 h incubation, read-out: IC50 of the Wnt pathway inhibitory activity
# Experimental: To screen for small-molecule modulators of the Wnt signalling pathway, a reporter gene based assay describing the modulation of the TCF4 transcription factor was used. More specifically 4000 Hek293T cells were seeded into 384 high density plates. 24h after seeding a Wnt-sensitive reporter (6xTCF-luciferase (Firefly) (pTOP-FLASH; "Armadillo coactivates transcription driven by the product of the Drosophila segment polarity gene dTCF", Cell, 1997, 88(6), pages 789-99)) and constitutively expressed control reporter (Renilla luciferase pCMV-RL) were transfected into Hek293T. Wnt signaling was stimulated by cotransfecting mouse Wnt1, mouse Frizzled 8 and human LRP6 according to "Casein kinase 1 gamma couples Wnt receptor activation to cytoplasmic signal transduction", Nature, 2005, 438(7069), pages 867-872. 24 h after pathway stimulation compounds were added at a concentration of 10 microM and allowed to incubate for 24 h. For the evaluation of the IC50 the compound was applied in increasing concentrations yielding final concentrations per well of 5nM - 100 microM.
# HS68 = test: Cell line specific cytotoxicity, count of Hoechst labeled nuclei, HS68 fibroblasts; assay type: cell-based, human; details: normal cells, at least 72 hr
# Experimental: For examination of cell line-specific cytotoxicity, compounds were applied to human colorectal cancer cells (HCT116, denoted (1); SW480, denoted (2); Dld-1, denoted (3)) and human fibroblasts (HFF-1, denoted (4); HS-68, denoted (5)), cultured in Mc Coy's (1) and Dulbecco's Modified Eagles Medium ((2)-(5)), supplemented with 10% ((1)-(3)) and 20% ((4), (5)) fetal calf serum and 1% penicillin/streptomycin. Cells were grown in T75 flasks at 37 °C, 5% CO2 and trypsinized when 60-80% confluent by adding 2 ml of 0.25% Trypsin-EDTA solution. Cells were then re-suspended into culture medium yielding approx. 750 cells, suspended in 45 microl medium, were plated into each well of a black 384-well plate for fluorescence imaging experiments. […] Compound incubation was terminated by (a) fixation and (b) permeabilisation of cells, followed by (c) fluorescence labeling of cell nuclei for cytometric quantification or by immunocytochemistry for microscopic evaluation of cell morphology. The three steps were performed by replacing the solution of the previous step in each well of a 384-well plate by (a) 30 microl PBS (phosphate buffered saline) containing 5% PFA (paraformaldehyde), (b) 30 microl PBS containing 0.2% TritonX-100 and (c) 10 microl PBS containing Hoechst-33342 for cytometry or Hoechst-33342, FITC-(fluorescein isothiocyanate-)labeled alpha-tubulin antibodies and TRITC-(tetramethylrhodamine isothiocyanate-)labeled phalloidin for microscopy. Solutions were incubated for 15 (a,b) and 30 min (c) in the dark at room temperature. Cells were washed twice between each step with 30 microl PBS. The assay system was miniaturized and adapted to automated workflow using liquid-handling robotics.
# Cell line-specific cytotoxicity was quantified by counting the number of Hoechst labeled nuclei per well of a 384-well plate using a plate cytometer. Data obtained with the cytometer was analysed using standard data analysis software.
# Identified hits were further evaluated by visual inspection of fluorescence micrographs obtained from imaging using a conventional fluorescence microscope.
# [1] = tested on: human colon carcinoma cells HCT116; test: Antiproliferative activity against HCT116, count of Hoechst labeled nuclei; assay type: cell-based; details: HCT116 colon carcinoma cells
# Experimental: For examination of cell line-specific cytotoxicity, compounds were applied to human colorectal cancer cells (HCT116, denoted (1); SW480, denoted (2); Dld-1, denoted (3)) and human fibroblasts (HFF-1, denoted (4); HS-68, denoted (5)), cultured in Mc Coy's (1) and Dulbecco's Modified Eagles Medium ((2)-(5)), supplemented with 10% ((1)-(3)) and 20% ((4), (5)) fetal calf serum and 1% penicillin/streptomycin. Cells were grown in T75 flasks at 37 °C, 5% CO2 and trypsinized when 60-80% confluent by adding 2 ml of 0.25% Trypsin-EDTA solution. Cells were then re-suspended into culture medium yielding approx. 750 cells, suspended in 45 microl medium, were plated into each well of a black 384-well plate for fluorescence imaging experiments. 24 - 36 hr later 5 microl compound solution (100 microM compound dissolved in ultra pure water containing 1% DMSO), were added to achieve a final concentration of 10 microM and were incubated for at least 72 hr. Compound incubation was terminated by (a) fixation and (b) permeabilisation of cells, followed by (c) fluorescence labeling of cell nuclei for cytometric quantification or by immunocytochemistry for microscopic evaluation of cell morphology. The three steps were performed by replacing the solution of the previous step in each well of a 384-well plate by (a) 30 microl PBS (phosphate buffered saline) containing 5% PFA (paraformaldehyde), (b) 30 microl PBS containing 0.2% TritonX-100 and (c) 10 microl PBS containing Hoechst-33342 for cytometry or Hoechst-33342, FITC-(fluorescein isothiocyanate-)labeled alpha-tubulin antibodies and TRITC-(tetramethylrhodamine isothiocyanate-)labeled phalloidin for microscopy. Solutions were incubated for 15 (a,b) and 30 min (c) in the dark at room temperature. Cells were washed twice between each step with 30 microl PBS. The assay system was miniaturized and adapted to automated workflow using liquid-handling robotics.
# Cell line-specific cytotoxicity was quantified by counting the number of Hoechst labeled nuclei per well of a 384-well plate using a plate cytometer. Data obtained with the cytometer was analysed using standard data analysis software. […]
# The examination of the antiproliferative activity against human colon carcinoma cells HCT116 was carried out in analogy to example 203. […] Compounds of the present invention have potent antiproliferative acivity against human colon carcinoma cells as shown for HCT116 in Table 6.
Structure (SMILES),Normalized Wnt pathway inhibitory activity (Wnt signalling pathway; 0.005 microM),Normalized Wnt pathway inhibitory activity (Wnt signalling pathway; 0.015 microM),Normalized Wnt pathway inhibitory activity (Wnt signalling pathway; 0.137 microM),Normalized Wnt pathway inhibitory activity (Wnt signalling pathway; 0.412 microM),Normalized Wnt pathway inhibitory activity (Wnt signalling pathway; 1.235 microM),Normalized Wnt pathway inhibitory activity (Wnt signalling pathway; 3.704 microM),Normalized Wnt pathway inhibitory activity (Wnt signalling pathway; 11.111 microM),Normalized Wnt pathway inhibitory activity (Wnt signalling pathway; 33.333 microM),Normalized Wnt pathway inhibitory activity (Wnt signalling pathway; 100.000 microM),IC50 (Wnt signalling pathway) [nM],Normalized cell count (HS68) (HS68; 0.005 microM),Normalized cell count (HS68) (HS68; 0.015 microM),Normalized cell count (HS68) (HS68; 0.046 microM),Normalized cell count (HS68) (HS68; 0.137 microM),Normalized cell count (HS68) (HS68; 0.412 microM),Normalized cell count (HS68) (HS68; 1.235 microM),Normalized cell count (HS68) (HS68; 3.704 microM),Normalized cell count (HS68) (HS68; 11.111 microM),Normalized cell count (HS68) (HS68; 33.333 microM),Normalized cell count (HS68) (HS68; 100.000 microM),also measured
CCOC(=O)c1c(C)nc2c(c(N3CCN(Cc4ccccc4F)CC3)nc(=O)n2-c2ccccc2)c1-c1ccccc1 [Example 150],0.8990,0.8480,1.0310,0.8660,0.6448,0.3170,0.2795,0.1573,0.1708,1600 ± 600,1,1.018,1.012,0.9701,0.9865,0.9917,1.106,1.081,1.034,0.6334,Normalized Wnt pathway inhibitory activity (Wnt signalling pathway; 0.046 microM): 0.8763; Normalized cell count (HCT 116) ([1]; 0.005 microM): 1; Normalized cell count (HCT 116) ([1]; 0.015 microM): 1.076; Normalized cell count (HCT 116) ([1]; 0.046 microM): 1.153; Normalized cell count (HCT 116) ([1]; 0.137 microM): 1.2; Normalized cell count (HCT 116) ([1]; 0.412 microM): 1.087; Normalized cell count (HCT 116) ([1]; 1.235 microM): 1.105; Normalized cell count (HCT 116) ([1]; 3.704 microM): 0.8597; Normalized cell count (HCT 116) ([1]; 11.111 microM): 0.4595; Normalized cell count (HCT 116) ([1]; 33.333 microM): 0.1363; Normalized cell count (HCT 116) ([1]; 100.000 microM): 0.1263
CCOC(=O)c1c(C)nc2c(c(N3CCN(C(c4ccc(F)cc4)c4ccc(F)cc4)CC3)nc(=O)n2-c2ccccc2)c1-c1ccccc1 [Example 157],0.9895,1.0328,0.6610,1.2550,0.6557,0.3888,0.3733,0.1933,0.1651,1900 ± 900,1,1.092,1.081,1.128,1.062,1.132,1.18,1.167,1.2661,1.294,Normalized cell count (HCT 116) ([1]; 0.005 microM): 1; Normalized cell count (HCT 116) ([1]; 0.015 microM): 1.101; Normalized cell count (HCT 116) ([1]; 0.046 microM): 1.031; Normalized cell count (HCT 116) ([1]; 0.137 microM): 1.151; Normalized cell count (HCT 116) ([1]; 0.412 microM): 1.072; Normalized cell count (HCT 116) ([1]; 1.235 microM): 0.9399; Normalized cell count (HCT 116) ([1]; 3.704 microM): 0.8282; Normalized cell count (HCT 116) ([1]; 11.111 microM): 0.7256; Normalized cell count (HCT 116) ([1]; 33.333 microM): 0.3684; Normalized cell count (HCT 116) ([1]; 100.000 microM): 0.2263
